Data on four compounds can be found in patent publication US9980943B2, “Methods of treating muscular dystrophy” (BOARD OF REGENTS OF THE NEVADA SYSTEM OF HIGHER EDUCATION, …, priority 2013, dated 2018).

In test [1] the test system is α7 integrin (LacZ reporter in α7+/LacZ myotubes). Description: Myotube α7 integrin FDG assay (Burkin assay in myotubes, 96-well). In kind it is cell-based, mouse.
Test [2] relates to α7 Integrin protein in C2C12 myotubes. Briefly: Western blot of α7 integrin protein in C2C12 myotubes. In kind it is cell-based, mouse. Conditions: 12 μM, 48 hours, α7B Integrin normalized to GAPDH. How it is done:
Bands were quantified using Image J software and then graphed as α7 Integrin protein levels relative to GAPDH protein levels. * denotes a significant difference in relative protein levels with ** p<0.01.
C2C12 myotubes were treated for 48 hours with each hit compound, washed with PBS, then scraped and pelleted using standard procedures. Cell pellets were resuspended in RIPA buffer and protein concentration determined by BCA. Approximately 10 μg of protein was loaded per lane and separated on 8% SDS-PAGE gels and transferred to nitrocellulose using standard conditions. Blots were probed using α7A and α7B integrin specific rabbit polyclonal antibody as previously described and […].
Western blot analysis of the myotube protein extracts were then performed for α7B Integrin and normalized to GAPDH (FIGS. 8A and 8B).
Immunoblot analysis is used to assess the protein level expression in treated and control cells. C2C12 and human DMD myoblasts and myotubes are cultured in triplicate experiments and treated with lead compounds or DMSO as described above. Cells are harvested using a cell scraper and extracted proteins. Extracted protein is quantified by a Bradford assay. […] A LiCoR Odyssey scanner and software is used to quantify band intensities and statistical significance (p<0.05) is determined using ANOVA.
On the technique in general: In western blotting, separated proteins are transferred to a membrane and probed.

The test system of test [3] is β-galactosidase in CMV-LacZ C2C12 myoblasts. Briefly: CMV-LacZ secondary screen in C2C12 myoblasts (β-Gal stabilizing assay). The class given is cell-based, mouse. Conditions: for CMV-LACZ in Myoblasts (β-galactosidase activity relative to DMSO): CMV-LacZ C2C12 myoblasts. An outline of the steps:
(§1)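 Dose-response runs at 0.5–40 μM (0.5, 1, 5, 10, 20, 40 μM; N=2 per point) used a clonal C2C12 line carrying CMV-LacZ. Cells were assayed as myoblasts or as differentiated myotubes, and β-galactosidase levels were read with the FDG fluorogenic substrate.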

The subject of test [4] is β-galactosidase in CMV-LacZ C2C12 myotubes. Briefly: CMV-LacZ secondary screen in C2C12 myotubes (β-Gal stabilizing assay). The class given is cell-based, mouse. Conditions: for CMV-LACZ in Myotubes, signal relative to DMSO: C2C12 CMV-LacZ myotubes, fold relative to DMSO. In a few lines: as §1
In test [5] the test system is α7 integrin (LacZ reporter in α7LacZ+/− myoblasts). Description: qHTS of the LOPAC library and MLSMR (online screen, α7LacZ+/− myoblasts). Conditions: LOPAC library.
The subject of test [6] is α7 integrin (LacZ reporter in α7βgal+/− myoblasts). Description: Myoblast α7+/LacZ integrin FDG assay (Burkin assay in myoblasts, 96-well). The class given is cell-based, mouse. Conditions: α7+/LacZ myoblasts, 96-well.

Structures are written as SMILES.

As for `COc1ccc2c(c1)/C(=C/c1cnc[nH]1)C(=O)N2` [SU9516, 3-[1-(3H-imidazol-4-yl)-meth-(Z)-ylidene]-5-methoxy-1,3-dihydro-indol-2-one, reference compound], in test [1] (Mus musculus, Myotube, read-out: EC50 α7+/LacZ MT), the EC50 came out at 6 µM. Also, the “increase in α7 Integrin protein levels compared to DMSO treated controls” value in test [2] is recorded as “approximately 1.6 fold”. Also, the “activity in C2C12 CMV-LACZ myoblasts” value in test [3] was “showed activity”. Moreover, the “activity in C2C12 CMV-LACZ myotubes” value in test [4] is “showed activity”. Besides, the “outcome of preliminary LOPAC library screen” value in test [5] is “hit”.
Take `CCOC(=O)c1sc(=N)n(-c2ccc(OC)cc2)c1C` [MLS000090135-01]: the “Burkin Assay in Myotubes, α7 integrin LacZ reporter signal relative to DMSO” value stood at 1.042 in test [1] (0.5 uM); 0.9598 in test [1] (1 uM); 0.8747 in test [1] (5 uM); 0.9078 in test [1] (10 uM); 0.8015 in test [1] (20 uM); 0.8215 in test [1] (40 uM). For the same compound, the “CMV-LACZ in Myoblasts (β-galactosidase activity relative to DMSO)” value in test [3] (0.5 uM) is on record as 1.0896; in test [3] (1 uM), 0.9421; in test [3] (5 uM), 0.9731; in test [3] (10 uM) it was 0.9296; in test [3] (20 uM) it was 0.6017; in test [3] (40 uM) it was 0.3653. For the same compound, the “CMV-LACZ in Myotubes, signal relative to DMSO” value is reported as 1.0155 in test [4] (0.5 uM); 1.1036 in test [4] (1 uM); 0.7503 in test [4] (5 uM); 1.0114 in test [4] (10 uM); 1.1100 in test [4] (20 uM); 1.1840 in test [4] (40 uM). Also, the “Burkin Assay in Myoblasts, signal relative to DMSO” value worked out at 1.227 in test [6] (0.5 uM); 1.166 in test [6] (1 uM); 0.988 in test [6] (5 uM); 1.018 in test [6] (10 uM); 0.6029 in test [6] (20 uM); 0.3956 in test [6] (40 uM).
As to `c1ccc(-c2cc(-c3nc4ccccc4[nH]3)c3ccccc3n2)cc1` [MLS000554416-01], the “Burkin Assay in Myotubes, α7 integrin LacZ reporter signal relative to DMSO” value in test [1] (0.5 uM) was found to be 0.9146; in test [1] (1 uM), 0.9261; in test [1] (5 uM), 0.8366; in test [1] (10 uM), 0.9334; in test [1] (20 uM), 0.6816; in test [1] (40 uM) it was 0.4915. For the same compound, the “CMV-LACZ in Myoblasts (β-galactosidase activity relative to DMSO)” value in test [3] (0.5 uM) was determined as 1.1310; in test [3] (1 uM) it was 1.3983; in test [3] (5 uM), 0.8594; in test [3] (10 uM) it was 1.1123; in test [3] (20 uM) it was 1.1077; in test [3] (40 uM) it was 0.8611. Besides, the “CMV-LACZ in Myotubes, signal relative to DMSO” value in test [4] (0.5 uM) amounted to 1.0019; in test [4] (1 uM), 0.9629; in test [4] (5 uM), 0.8969; in test [4] (10 uM), 0.9798; in test [4] (20 uM), 0.8760; in test [4] (40 uM), 0.7060. Further, the “Burkin Assay in Myoblasts, signal relative to DMSO” value in test [6] (0.5 uM) is listed as 1.211; in test [6] (1 uM), 1.0679; in test [6] (5 uM), 0.9915; in test [6] (10 uM), 0.9591; in test [6] (20 uM) it was 1.087; in test [6] (40 uM), 0.8248.
`O=C(CCc1ccccc1)c1nnc(-c2ccccc2)o1` [MLS001004364-01]: the “Burkin Assay in Myotubes, α7 integrin LacZ reporter signal relative to DMSO” value in test [1] (0.5 uM) was found to be 1.093; in test [1] (1 uM), 1.105; in test [1] (5 uM), 0.9047; in test [1] (10 uM) it was 0.8617; in test [1] (20 uM), 0.8875; in test [1] (40 uM), 1.055. Moreover, the “CMV-LACZ in Myoblasts (β-galactosidase activity relative to DMSO)” value in test [3] (0.5 uM) came to 0.9117; in test [3] (1 uM), 1.0643; in test [3] (5 uM), 1.0438; in test [3] (10 uM), 0.9011; in test [3] (20 uM) it was 1.0263; in test [3] (40 uM), 1.0441. In addition, the “CMV-LACZ in Myotubes, signal relative to DMSO” value in test [4] (0.5 uM) is given as 0.9210; in test [4] (1 uM) it was 1.0095; in test [4] (5 uM), 0.8978; in test [4] (10 uM) it was 0.9480; in test [4] (20 uM), 1.2824; in test [4] (40 uM), 1.1824. Besides, the “Burkin Assay in Myoblasts, signal relative to DMSO” value in test [6] (0.5 uM) was 1.0917; in test [6] (1 uM), 1.105; in test [6] (5 uM) it was 1.035; in test [6] (10 uM) it was 0.9531; in test [6] (20 uM) it was 0.9729; in test [6] (40 uM) it was 0.9374.
